The test system of test [1] is tumour cells that were not able to express HLA-DR4. Kind of test: Tumour therapy, B16F1 lacking DR4 in HLA-DR4 mice. Format: in vivo, mouse. The note with it: tumour without HLA-DR4. An excerpt: This is also true in the ALDOA immunised mice.
For test [2], the system named is splenocytes from immunised mice. Briefly: Ex vivo IL-10 ELISpot after peptide immunisation. Conditions: mouse, in vivo. The protocol:
(§1) C57BL/6 mice (Charles River, UK), HLA-DR4 mice (Model #4149, Taconic, USA), HLA-A2/DR1 (HHDII/DR1, Pasteur Institute), HLA-A2.1+/+HLA-DP4+/+hCD4+/+ (HLA-HHDII/DP4) transgenic mice (EM: 02221, European Mouse Mutant Archive) described in patent WO2013/017545 A1 (EMMA repository, France) were used, aged between 8 and 12 weeks. Peptides were dissolved in PBS to 1 mg/ml and then emulsified (a series of dilutions) with CpG ODN 1826 and MPLA 6 μg/mouse of each (Invivogen, UK). Peptides (25 μg/mouse) were injected subcutaneously at the base of the tail. Mice were immunised at days 1, 7 and 14 for peptide immunisation. Spleens were removed for analysis at day 21 unless stated otherwise.
(§2) ELISpot assays were performed using murine IFNγ, IL-17 and IL-10 capture and detection reagents according to the manufacturer's instructions (Mabtech, Sweden). In brief, anti-IFNγ, IL-17 and IL-10 specific antibodies were coated onto wells of 96-well Immobilin-P plate. […] After incubation, captured IFNγ, IL-10 and IL-17 were detected by biotinylated anti-IFNγ, IL-10 and IL-17 antibodies and developed with a streptavidin alkaline phosphatase and chromogenic substrate. […] Spots were analysed and counted using an automated plate reader (Cellular Technologies Ltd).

Test [3] relates to B16F1 DR4 tumours. Briefly: Tumour therapy, B16F1 DR4 tumour in DR4 mice. Conditions: peptide with CpG/MPLA days 4, 11, 18. Format: in vivo, mouse. An excerpt:
To determine if the epitopes that stimulate T cell responses are presented on MHC-II within the tumour environment, our homocitrullinated peptides were checked for tumour therapy in B16 tumour models. Mice were implanted with tumour cells on day 1 and then immunised with peptides and CpG/MPLA on days 4, 11 and 18.
HHDII/DR1 (FIG. 19a) or DR4 (FIG. 19b) transgenic mice were challenged with B16F1 HHDII/DR1 or B16F1 DR4 tumours respectively prior to immunisation with vimentin 116-135Hcit peptide and tumour growth and survival were monitored.

Test [4] relates to IFNγ-inducible B16 DR4 tumour. Briefly: Tumour therapy, IFNγ-inducible B16 DR4 tumour in HLA-DR4 mice. It is filed as in vivo, mouse. The note with it: peptide with CpG/MPLA. The source says: To mimic the naturally occurring tumour, we engineered B16F1 cells to express HLA-DR4 under control of mouse IFNγ-inducible promoter. […] HLA-DR4 mice were then implanted with this IFNγ-inducible B16 DR4 tumour followed by immunisation with vimentin 116-135Hcit peptide (FIG. 19e).

Test [5] deals with C57BI/6 mice. Kind of test: Ex vivo IFNγ ELISpot after peptide immunisation, C57Bl/6 mice. It is filed as in vivo, mouse. The protocol:
as §1, §2
Significant IFNγ responses were detected to peptide vimentin 116-135 Hcit. […]

Test [6] concerns splenocytes from immunised mice. Kind of test: Ex vivo IL-17 ELISpot after peptide immunisation. Conditions: mouse, in vivo. As to the method: as §1, §2

Where no end group is shown, it is not given here. [ ]: non-standard residue; d: D form. hCit = NC(=O)NCCCC[C@H](N)C(=O)O

In the case of “NYID-Hcit-VRFLEQQN-Hcit-ILLAEL (NYID[hCit]VRFLEQQN[hCit]ILLAEL) [Vimentin 116-135 Hcit]”, the survival rate in test [1] was 20%. Also, the “IL-10 ELISpot response” value in test [2] is recorded as “no production”. The overall survival in test [3] stood at 70%. The substance also came in with a survival in test [4] of 40%. Further, in test [5], the “IFNγ ELISpot response” value is “no IFNγ responses were observed”. Moreover, the “IL-17 ELISpot response” value in test [6] was “no production”.

The record behind these values is patent publication US12458688B2, “Epitopes” (Scancell Limited, priority 2018, dated 2025).
